Columns and labels:
[1] = system: human hepatocytes; assay: Metabolic stability in hepatocytes; type: in vitro ADME; settings: 1 μM, 1×10^6 cells/mL, 0-240 min
Experimental: (§1) Test compounds are incubated in human hepatocytes and stability is assessed from the substrate […] approach. Test compounds are dissolved in dimethyl sulfoxide (DMSO) to create a 10 mM Stock, and then further diluted to create a 1000× Working Stock of 1 mM with DMSO in 96-well plates for test compounds and the positive control (midazolam). Vials containing cryopreserved hepatocytes are removed from the liquid nitrogen tank and immediately immersed in a 37° C. water bath. The vials are shaken gently until the contents had thawed and were then immediately emptied into 48 mL of pre-warmed HT Medium in a 50 mL conical tube. Cells remaining in the vial are resuspended with 1.0 mL of pre-warmed HT Medium and added to the conical tube. The tube is capped and then gently inverted several times to resuspend the hepatocytes. The cell suspension is centrifuged at 50×g at room temperature for 5 minutes and the supernatant discarded. The cell pellet is loosened by gently swirling the centrifuge tube and is re-suspended in 4 mL of warm Dulbecco's Modified Eagle medium (DMEM). Cell density is determined by a cell counter by Nexcelom, and DMEM medium is added to obtain a target density of 1×10^6 cells/mL. The assay is carried out in 96-well microtiter plates. Test Compounds are incubated at 1 μM with 1×10^6 cells/mL hepatocytes in DMEM for 0, 30, 60, 120 and 240 minutes. The incubation is carried out with gentle shaking at 37° C. under a humid atmosphere of 95% air/5% CO2. The volume of the incubation mixture is 37 μL with a final 0.1% DMSO. At each of the time points, the incubation is stopped by adding 150 μL quenching solution (100% acetonitrile, 0.1% formic acid containing bucetin as an internal standard for positive ESI mode). Subsequently, the mixtures are vortexed for 20 min and centrifuged at 4,000 RPM at 10° C. The supernatant (80 μL) is transferred to a clean 96-well plate and analyzed by LC-MS/MS. Midazolam at 1 μM with a final 0.1% DMSO is included as a positive control to verify assay performance. The percent parent remaining, intrinsic and predicted hepatic clearance and t1/2 are calculated. All samples are analyzed by LC-MS/MS using an AB Sciex API 4000 instrument, coupled to a Shimadzu LC-20AD LC Pump system. Separation is achieved using a Waters Atlantis T3 dC18 reverse phase HPLC column (20 mm×2.1 mm) at a flow rate of 0.5 mL/min. The mobile phase consisted of 0.1% formic acid in water (solvent A) and 0.1% formic acid in 100% acetonitrile (solvent B). Elution conditions are detailed below.
(§2) The ion optics of each test compound are optimized for their declustering potential (DP), […] (CE), collision-cell exit potential (CXP) and used in a selected ion monitoring experiment in the positive ion mode. The peak area ratio of each test compound to internal standard is then evaluated for stability. The extent of metabolism is calculated based on the disappearance of the test compound, compared to its initial concentration. The initial rates of clearance of the test compound are calculated using the linear regression plot of semi-log % remaining of the compound versus time. The elimination rate constant (k) of the linear regression plot is then used to determine t1/2 and the intrinsic clearance (CLint) using the following formula, where Chepatocyte (million cells/mL) is the cell density of the incubation: k=−slope t1/2=0.693/k CLint=k/Chepatocyte
(§3) Test compounds were incubated in human hepatocytes and stability was assessed from the substrate […] approach. Test compounds were dissolved in dimethyl sulfoxide (DMSO) to create a 10 mM Stock, and then further diluted to create a 1000× Working Stock of 1 mM with DMSO in 96-well plates for test compounds and the positive control (midazolam). Vials containing cryopreserved hepatocytes were removed from the liquid nitrogen tank and immediately immersed in a 37° C. water bath. […]

[2] = Metabolic stability in hepatocytes; type: in vitro ADME; settings: cryopreserved human hepatocytes (suspension), 1×10^6 cells/mL, intrinsic clearance, read-out: hHep CLint
Experimental: as §1, §2, §3

[3] = biological target: T1, human GLP-1R receptor (Homo sapiens, UniProt P43220); assay: GLP-1R low expression cell assay (cAMP TR-FRET, CHO-K1_hGLP-1Rlow_clone10); type: cell-based; settings: CHO-K1_hGLP-1Rlow_clone10 cells, percent activation relative to control GLP-1 peptide
T1 construct: expressed in transfected cells
Experimental: Stable cell lines expressing high and low GLP-1R surface expression are generated in CHO-K1 cells transfected (Fugene 6) with a puromycin selectable DNA plasmid encoding human GLP-1R receptor (accession number: NM_002062.5) under control of an EF1A promoter. Transfected cells are seeded into 24-well plates (9,000 cells/well) containing complete medium and incubated in a humidified incubator at 37° C. with 5% carbon dioxide. After overnight incubation, medium is replaced with complete medium supplemented with puromycin (6 μg/mL) and refreshed every 2-3 days to select for stably transfected cells. Individual pools of selected cells are expanded prior to analysis for responsiveness to GLP-1 control peptide using a TR-FRET assay to detect cAMP (LANCE Ultra cAMP Assay, Perkin Elmer). Briefly, cells are collected in Versene solution, plated in 384-well plates (1,000 cells/well) and combined with serially diluted GLP-1R control peptide (10 nL) using an acoustic dispenser (ECHO). Plates are incubated for 30 minutes at 25° C. prior to the addition of EU-cAMP tracer (5 μL) and Ulight-anti-cAMP (5 μL) reagents to each well, followed by 15 minutes incubation at 25° C. TR-FRET signal is detected using an EnVision Multimode Plate Reader (excitation=320 nm; emission=615 and 655 nm). Dose-response curves are used to generate EC50 values as a measure of responsiveness to the GLP-1R control peptide. Selected cell lines are monitored for responsiveness over multiple passages to ensure stability. […] Briefly, GLP-1R expression is analyzed by flow cytometry using a fluorescein-labeled Exendin-4 peptide fluorescent probe (FLEX). Cells are harvested in Versene solution and washed 3-times with PBS+0.5% BSA before incubation with FLEX reagent (10 μM) for 2 hours at room temperature. After incubation, cells are washed 3-times in PBS+0.5% BSA before final resuspension in PBS prior to analysis by flow cytometry to measure FLEX mean fluorescence intensity (MFI) as a measure of GLP-1R expression on the cell surface.
For compound testing in the CHO-K1_hGLP-1Rlow_clone10 cell lines, cells are seeded in 384-well plates (1,000 cells/well). Test compounds are serially diluted in DMSO (10-point, 3-fold dilution), added to wells using an ECHO dispenser (10 nL/well) and plates are centrifuged for 1 min and agitated for 2 min at room temperature prior to 30-minute incubation at 25° C. After incubation, Eu-cAMP (5 μL) and Ulight-anti-cAMP (5 μL) reagents are added to each well, followed by centrifugation for 1 minute, agitation for 2 minutes at room temperature, and final incubation of the plates at 25° C. for 15 minutes. Plates are read using an EnVision microplate reader (excitation=320 nm; emission=615 and 655 nm). Dose-response curves are generated from duplicate wells based on percent activation calculated relative to a control GLP-1 peptide agonist that was run in parallel. EC50 values are determined by fitting percent activation as a function of compound concentration using the Hill equation (XLfit).
Stable cell lines expressing high and low GLP-1R surface expression were generated in CHO-K1 cells transfected (Fugene 6) with a puromycin selectable DNA plasmid encoding human GLP-1R receptor (accession number: NM_002062.5) under control of an EF1A promoter. Transfected cells were seeded into 24-well plates (9,000 cells/well) containing complete medium and incubated in a humidified incubator at 37° C. with 5% carbon dioxide. After overnight incubation, medium was replaced with complete medium supplemented with puromycin (6 μg/mL) and refreshed every 2-3 days to select for stably transfected cells. Individual pools of selected cells were expanded prior to analysis for responsiveness to GLP-1 control peptide using a TR-FRET assay to detect cAMP (LANCE Ultra cAMP Assay, Perkin Elmer).

T1 sequence (P43220 24-463): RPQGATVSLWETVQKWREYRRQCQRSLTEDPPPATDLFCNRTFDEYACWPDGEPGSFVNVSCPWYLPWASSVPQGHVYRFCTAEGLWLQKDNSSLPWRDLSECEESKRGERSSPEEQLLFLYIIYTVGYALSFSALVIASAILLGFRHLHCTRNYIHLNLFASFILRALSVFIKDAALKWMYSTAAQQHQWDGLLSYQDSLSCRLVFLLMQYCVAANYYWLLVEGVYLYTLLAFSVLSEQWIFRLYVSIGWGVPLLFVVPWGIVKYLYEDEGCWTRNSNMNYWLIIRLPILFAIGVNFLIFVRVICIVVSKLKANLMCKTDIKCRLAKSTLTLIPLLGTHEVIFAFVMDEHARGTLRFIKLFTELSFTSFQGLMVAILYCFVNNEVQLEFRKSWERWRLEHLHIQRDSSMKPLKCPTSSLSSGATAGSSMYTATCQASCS

Row | SMILES | hHep t1/2 [1] | CLint scaled at 1 μM [2] | EC50 [3]
1 | N#Cc1ccc(COc2ccnc(N3CCN(Cc4nc5ccc(C(=O)O)cc5n4Cc4cncs4)[C@H]4C[C@H]43)n2)c(F)c1 [Compound 19, 2-((5-(4-((4-Cyano-2-fluorobenzyl)oxy)pyrimidin-2-yl)-2,5-diazabicyclo[4.1.0]heptan-2-yl)methyl)-1-(thiazol-5-ylmethyl)-1H-benzo[d]imidazole-6-carboxylic Acid] | > 8 h | 5.01 mL/min/kg | > 100 nM
2 | N#Cc1ccc(COc2cccc(N3CCN(Cc4nc5ccc(C(=O)O)cc5n4C[C@@H]4CCO4)[C@H]4CC43)n2)c(F)c1 (single isomer, unassigned) [Compound 42] | > 8 h | 5.01 mL/min/kg | 50 to 100 nM
3 | CCn1nncc1Cn1c(CN2CCN(c3cccc(OCc4ccc(C#N)cc4F)n3)C3C[C@@H]32)nc2ccc(C(=O)O)cc21 (some centres unmarked) [Compound 44, 2-((5-(6-((4-Cyano-2-fluorobenzyl)oxy)pyridin-2-yl)-2,5-diazabicyclo[4.1.0]heptan-2-yl)methyl)-1-((1-ethyl-1H-1,2,3-triazol-5-yl)methyl)-1H-benzo[d]imidazole-6-carboxylic Acid] | > 8 h | 5.01 mL/min/kg | –
